Tests used:
[1] = system: soleus muscle; test: Lipid metabolites (free fatty acid, glycerol, triglyceride; enzymatic analysis) in isolated soleus muscle from normally fed rats; format: cell-based, rat
[2] = system: soleus muscle; test: Individual free fatty acids by gas chromatography in soleus muscle of rats fed high fat diets; parameters: species or system rat; conditions: 1 hour, GC
Excerpt: (§1) High-fatted rats. Groups of male Wistar rats (n=21/diet) were ad libitum fed high-fat diets containing standard rat chow to which 40% (w/w) of lard, corn oil or olive oil had been added, from the time of weaning (age=21 d) until sacrifice at 50 d. Triacylglycerol from lard contains predominantly saturated fatty acids; that from corn oil […], see Table 4.
(§2) Soleus muscle tissue isolation and incuhation.Immersion and incubation media was Krebs-Henseleit buffer (KHB) containing 118.5 mM NaCl, 4.75 mM KCl, 1.18 mM MgSO4.7H2O and KH2PO4, 24.8 mM NaHCO3, 2.54 mM CaCl2 and 10 mM d-glucose. The medium was gassed continuously with 95% O2/5% CO2. […] Soleus muscles of both legs were excised keeping the tissue immersed in KHB; muscles were separated into two equal parts and transferred to the incubation flasks. At the completion of incubation the muscles were snap frozen in liquid nitrogen, and then trimmed of connective tissue and all visible fat. The muscle strips were stored at −80° C. until analysis.
(§3) Lipid extraction and chromatographic separation of fatty acids. Total lipids were extracted from muscle strips by a modified version of the method of Bligh and Dyer (Gorski et al., 1988, Mol & Cell Biochem 178:113-118; 1. Bligh et al., 1959, Can J Biochem Physiol 37: 911-917). Muscles were homogenised (Soniprep 150) in 0.4 ml of deionised water. Solvent volumes used herein were varied according to the water content of the muscle (ie muscle weight) as described (Bligh & Dyer, supra). 2 vols of methanol containing 0.005% butylated hydroxy toluene (BHT) and 1 vol chloroform were added to the muscle suspension. Homogenates were vortexed at maximum speed for 2 minutes and centrifuged at 2,500 g for 4 minutes. Supernatants were recovered and pellets re-extracted with 2 vol methanol, 1 vol chloroform and 0.8 vol 0.2 N HCl. Residues were vortexed for 2 min then centrifuged at 3,500 g for 3 min. After centrifugation the combined supernatants were diluted with 2v each of milli Q water and chloroform and the phases separated by centrifugation at 3,500 g for 4 minutes. The lower chloroform phase was recovered, neutralised by dropwise addition of 0.2 N methanolic NH4OH and evaporated down in a stream of N2. The samples were stored at −80° C. until required.
(§4) Aminopropyl phase (250 mg) was packed into 16 ml teflon columns with teflon frits placed at the top and bottom of the bonded phase. Columns were placed in a Vac Elut apparatus and washed twice with 2 ml portions of hexane (Prasad et al., 1988, J Chromato 428: 221-228; Kaluzny et al., 1985, J Lipid Res 26: 135-140). The dry lipid samples were taken up in two 0.150 ml portions of chloroform and applied to the column under atmospheric pressure. After adsorption the neutral lipids were eluted with 4 ml of chloroform-2-propanol (2:1, v/v) and the free fatty acids eluted with 4 ml of 2% acetic acid in diethyl ether. The solvent containing the free fatty acids was dried under a stream of N2.
Gas-liquid chromatographic analysis. Dry free fatty acid residues were processed for derivatisation of methyl esters by the boron trifluoride-methanol method (Prasad, supra). 1 ml of boron trifluoride in methanol (BF3) was added to each sample, the sample vials were heated at 70° C. for 5 minutes, shaken vigorously, and baked for a further 10 minutes. Once the samples reached room temperature 0.5 ml milli Q water was added, the sample vials shaken, 0.1 ml heptane was added and the sample shaken again. 0.05 ml of the top heptane layer was removed for GLC analysis. A Model HP5890 Plus Series 2 (Hewlett-Packard) gas chromatograph equipped with a DB-225 column was used to separate the methyl esters of the fatty acids and a Model HP 5890 GC with a Model HP 5973 MS (Hewlett-Packard) GC/MS used to confirm the identity of individual free fatty acids. […]

[3] = system: soleus muscle; test: Triglyceride and free fatty acid content (enzymatic) in isolated soleus muscle of rats fed high fat diets; format: cell-based, rat; conditions: 1 h
Excerpt: as §1, §2, §3, §4
Determination of tissue free fatty acids and triacylglycerol concentration by enzymatic analyses. Free fatty acids were separated from total lipid, evaporated under a stream of N2 and stored at −80° C. until analysis. Samples were dissolved in 50 μl of warm ethanol (35-40° C.), and 0.625 ml of a Triton X-100 (6% w/v) solution was added once the ethanol reached room temperature. The solution was stirred for 30 min, then made up to 0.825 ml with the Triton solution. Free fatty acids were quantified using a commercial method (Boehringer Mannheim) adapted for micro analyses (Cobas Mira, Roche Diagnostics), with palmitic acid standards. Triacyl glycerol levels were quantified in the total lipid fraction (Pointe Scientific) with a glycerol standard.
Total lipid was extracted and quantitated. Results are shown in FIGS. 18A NEFA and 18B triglyceride.

[4] = rats fed diet high in olive oil

rat CGRP-1
soleus muscle free fatty acid concentration, agonist alone ([1]; 1 pM CGRP, 1 h (FIG. 3C)): 166 ± 18 nmol/g | soleus muscle free fatty acid content, agonist alone ([1]; 100 nM, 1 h, normal-fed rats (FIG. 3A, 3B)): 334 ± 52 nmol/g | triacylglycerol (triglyceride) content ([1]; soleus, normally fed rats, 60-min, 100 nM amylin or CGRP-1, 4.4 μM norepinephrine, control 1.17±0.15, not significant): 1.9 ± 0.23 µmol/g | intramuscular glycerol content ([1]; soleus, normally fed rats, 1 h, 100 nM amylin or CGRP-1, 4.4 μM norepinephrine, control 0.07±0.007): 0.04 ± 0.008 nmol/g | free fatty acid adrenic C22:4 ([2]; rats fed diet high in corn oil): 0.04 ± 0.002 nmol/g wwt | free fatty acid arachidic C20:0 ([2]; rats fed diet high in corn oil): 0.03 ± 0.005 nmol/g wwt | free fatty acid arachidonic C20:4 ([2]; rats fed diet high in corn oil): 0.02 ± 0.002 nmol/g wwt | free fatty acid cervonic C22:6 ([2]; rats fed diet high in corn oil): 0.03 ± 0.003 nmol/g wwt | free fatty acid linoleic C18:2 ([2]; rats fed diet high in corn oil): 0.18 ± 0.008 nmol/g wwt | free fatty acid linolenic C18:3 ([2]; rats fed diet high in corn oil): 0.17 ± 0.01 nmol/g wwt | free fatty acid margaric C17:0 ([2]; rats fed diet high in corn oil): 0.02 ± 0.003 nmol/g wwt | free fatty acid myristic C14:0 ([2]; rats fed diet high in corn oil): 0.03 ± 0.02 nmol/g wwt | free fatty acid oleic C18:1 ([2]; rats fed diet high in corn oil): 0.16 ± 0.01 nmol/g wwt | free fatty acid palmitic C16:0 ([2]; rats fed diet high in corn oil): 0.16 ± 0.03 nmol/g wwt | free fatty acid palmitoleic (n-7) C16:1 ([2]; rats fed diet high in corn oil): 0.01 ± 0.0008 nmol/g wwt | free fatty acid palmitoleic (n-9) C16:1 ([2]; rats fed diet high in corn oil): 0.20 ± 0.008 nmol/g wwt | free fatty acid pentadecanoic C15:0 ([2]; rats fed diet high in corn oil): 0.04 ± 003 nmol/g wwt | free fatty acid stearic C18:0 ([2]; rats fed diet high in corn oil): 0.39 ± 0.02 nmol/g wwt | free fatty acid timnodonic C20:5 ([2]; rats fed diet high in corn oil): 0.04 ± 0.001 nmol/g wwt | free fatty acid vaccenic C18:1 ([2]; rats fed diet high in corn oil): 0.02 ± 0.004 nmol/g wwt | free fatty acid adrenic C22:4 ([2]; rats fed diet high in lard): 0.04 ± 0.005 nmol/g wwt | free fatty acid arachidic C20:0 ([2]; rats fed diet high in lard): 0.07 ± 0.004 nmol/g wwt | free fatty acid arachidonic C20:4 ([2]; rats fed diet high in lard): 0.02 ± 0.001 nmol/g wwt | free fatty acid cervonic C22:6 ([2]; rats fed diet high in lard): 0.015 ± 0.002 nmol/g wwt | free fatty acid linoleic C18:2 ([2]; rats fed diet high in lard): 0.23 ± 0.005 nmol/g wwt | free fatty acid margaric C17:0 ([2]; rats fed diet high in lard): 0.09 ± 0.01 nmol/g wwt | free fatty acid myristic C14:0 ([2]; rats fed diet high in lard): 0.03 ± 0.007 nmol/g wwt | free fatty acid oleic C18:1 ([2]; rats fed diet high in lard): 0.25 ± 0.02 nmol/g wwt | free fatty acid palmitic C16:0 ([2]; rats fed diet high in lard): 0.24 ± 0.01 nmol/g wwt | free fatty acid palmitoleic (n-7) C16:1 ([2]; rats fed diet high in lard): 0.02 ± 0.005 nmol/g wwt | free fatty acid palmitoleic (n-9) C16:1 ([2]; rats fed diet high in lard): 0.03 ± 0.003 nmol/g wwt | free fatty acid pentadecanoic C15:0 ([2]; rats fed diet high in lard): 0.14 ± 0.01 nmol/g wwt | free fatty acid stearic C18:0 ([2]; rats fed diet high in lard): 0.35 ± 0.06 nmol/g wwt | free fatty acid timnodonic C20:5 ([2]; rats fed diet high in lard): 0.02 ± 0.002 nmol/g wwt | free fatty acid vaccenic C18:1 ([2]; rats fed diet high in lard): 0.03 ± 0.006 nmol/g wwt | free fatty acid adrenic C22:4 [2, 4]: 0.03 ± 0.006 nmol/g wwt | free fatty acid arachidic C20:0 [2, 4]: 0.04 ± 0.001 nmol/g wwt | free fatty acid arachidonic C20:4 [2, 4]: 0.02 ± 0.007 nmol/g wwt | free fatty acid cervonic C22:6 [2, 4]: 0.11 ± 0.03 nmol/g wwt | free fatty acid linoleic C18:2 [2, 4]: 0.06 ± 0.01 nmol/g wwt | free fatty acid linolenic C18:3 [2, 4]: 0.03 ± 0.0009 nmol/g wwt | free fatty acid margaric C17:0 [2, 4]: 0.03 ± 0.012 nmol/g wwt | free fatty acid myristic C14:0 [2, 4]: 0.015 ± 0.0009 nmol/g wwt | free fatty acid oleic C18:1 [2, 4]: 0.34 ± 0.01 nmol/g wwt | free fatty acid palmitic C16:0 [2, 4]: 0.20 ± 0.006 nmol/g wwt | free fatty acid palmitoleic (n-7) C16:1 [2, 4]: 0.02 ± 0.002 nmol/g wwt | free fatty acid palmitoleic (n-9) C16:1 [2, 4]: 0.27 ± 0.013 nmol/g wwt | free fatty acid pentadecanoic C15:0 [2, 4]: 0.08 ± 002 nmol/g wwt | free fatty acid stearic C18:0 [2, 4]: 0.12 ± 0.004 nmol/g wwt | free fatty acid timnodonic C20:5 [2, 4]: 0.01 ± 0.001 nmol/g wwt | free fatty acid vaccenic C18:1 [2, 4]: 0.17 ± 0.008 nmol/g wwt | soleus muscle triglyceride content ([3]; diet with 40% added lard, 100 nM amylin or CGRP-1, 4.4 μM norepinephrine, control 1.14±0.16): 0.75 ± 0.08 µmol/g | soleus muscle free fatty acid content ([3]; diet with 40% added lard, 100 nM amylin or CGRP-1, 4.4 μM norepinephrine, control 43±8): 64 ± 7 nmol/g | soleus muscle triglyceride content ([3]; diet with 40% corn oil, 100 nM, control 0.89±0.06 μmol/g): 0.48±0.06 [mol/g | soleus muscle free fatty acid content ([3]; diet with 40% corn oil, 100 nM, control 35±4): 99 ± 17 nmol/g | soleus muscle triglyceride content ([3]; diet with 40% olive oil, 100 nM, control 0.83±0.1): 0.52 ± 0.08 µmol/g | soleus muscle free fatty acid content ([3]; diet with 40% olive oil, 100 nM, control 15±3): 55 ± 14 nmol/g
